Here are results for two compounds from publication PMC11352273, “The Proapoptotic Action of Pyrrolidinedione–Thiazolidinone Hybrids towards Human Breast Carcinoma Cells Does Not Depend on Their Genotype” (Cancers, 2024).

Like-named read-outs stand apart in the source and are kept apart here. A value given as a limit tells only on which side of the number the result lay.

One test deals with 4T1 cells. The experiment in a line: MTT assay. Format: cell-based, murine. To be noted: Mus musculus, read-out: IC50, µM (M ± SD). As for the experimental part:
(§1) The MCF-7 and MDA-MB-231 cells were cultured in the DMEM medium containing 10% of the FBS, HCC1954, T-47D, and 4T1 cells in the RPMI-1640 medium with the addition of 10% of the FBS, and MCF-10A cells in MEGM Mammary Epithelial Cell Growth Medium BulletKit supplemented with penicillin/streptomycin cocktail and 5% of horse serum. The cells were cultured in a […] atmosphere at 5% CO2 and 37 °C. After trypsinization, cells were counted using a Scepter 3.0 handheld automated cell counter (Millipore, Burlington, MA, USA).
(§2) The MTT test was used to assess the metabolic activity of cells treated with the investigated substances following the Sigma-Aldrich manufacturer’s instructions. Briefly, compounds were added in 100 µL of the cultural medium, and cells were incubated for the next 24 and 48 h. Doxorubicin was used as a reference drug. The DMSO was added to dissolve the crystals of formazan. We used the ThermoScientific Evolution 201 UV–VIS spectrophotometer (ThermoFisher Scientific, Waltham, MA, USA) to measure the absorbance of formazan at 570 nm. The initial value of the relative number of cells in control (under 0.1% of the DMSO) was accepted as 100%. We used GraphPad Prism Version 9 to calculate the half-maximal inhibition concentration (IC50) of the studied compounds (the concentration of the drug that reduced cell viability by 50%).

Test [1] relates to HCC1954 cells. Briefly: MTT assay. Type of test: cell-based. The conditions noted are these: Homo sapiens, read-out: IC50, µM (M ± SD). As for the experimental part: as §1, §2
A general note: Tetrazolium assays rely on reduction of a dye to a coloured formazan, in cell work by metabolically active cells.

Test [2] deals with MCF-7 cells. Briefly: MTT assay. Type of test: cell-based. To be noted: Homo sapiens, read-out: IC50, µM (M ± SD). As for the experimental part:
as §1, §2

Test [3] concerns MDA-MB-231 cells. Briefly: MTT assay. Format: cell-based. The conditions noted are these: Homo sapiens, read-out: IC50, µM (M ± SD). As for the experimental part:
as §1, §2

Another test deals with T-47D cells. The experiment in a line: MTT assay. Type of test: cell-based. To be noted: Homo sapiens, T47D, read-out: IC50, µM (M ± SD). As for the experimental part: as §1, §2
In test [4] the test system is MCF-10A cells. The experiment in a line: MTT assay. Format: cell-based, human. As for the experimental part: as §1, §2
For test [5], the system named is HCC1954 cells. Briefly: Clonogenic assay. Type of test: cell-based, human. The conditions noted are these: Homo sapiens; HCC1954; 72 h exposure, 14 days culture; read-out: IC50 (M ± SD) in clonogenic assay. As for the experimental part:
(§3) The clonogenic assay was carried out utilizing the previously published methodology. The MCF-7, MDA-MB-231, HCC1954, and MCF-10A cells (500 cells/2 mL) were seeded in a 12-well plate overnight. Afterward, studied derivatives or doxorubicin (1, 2.5, 5, 10, and 50 µM) were added to cells. The media was changed after 72 h to a compound-free one, and the cells were cultured for the following 14 days. Then, the cells were washed, fixed, and stained with 0.1% crystal violet. After washing, the plates were dried at room temperature. The colonies were recorded by ImageJ software (Version 1.30). The value of colonies in control (non-treated cells) was accepted as 100%. The effect of compounds on the colony-forming ability of cells was expressed as the percentage of colonies compared to the control.

Test [6] concerns MCF-7 cells. Briefly: Clonogenic assay. Type of test: cell-based, human. The conditions noted are these: for IC50: Homo sapiens, MCF7, MCF-7, 72 h exposure, 14 days culture, read-out: IC50 (M ± SD) in clonogenic assay; for formation of colonies: MCF-7, compound at 5 µM. As for the experimental part: as §3
In test [7] the test system is MDA-MB-231 cells. The experiment in a line: Clonogenic assay. To be noted: for IC50: Homo sapiens, MDA-MB-231, 72 h exposure, 14 days culture, read-out: IC50 (M ± SD) in clonogenic assay. Format: cell-based, human. As for the experimental part: as §3
Test [8] concerns MCF-10A cells. Briefly: Clonogenic assay. Format: cell-based. To be noted: Homo sapiens; for IC50: 72 h exposure, 14 days culture, read-out: IC50 (M ± SD) in clonogenic assay; for inhibition at 50 µM: compound at 50 µM, read-out: inhibition of the formation of colonies. As for the experimental part:
as §3

The subject of test [9] is MDA-MB-231, 4T1, MCF-7, T-47D, and HCC1954 cells. The experiment in a line: MTT assay, summary over breast carcinoma cell lines. Format: cell-based. The conditions noted are these: for IC50: Breast carcinoma cell, 24 and 48 h, all five cancer cell lines and all three hybrids together, read-out: IC50, range over breast carcinoma cell lines; for selectivity index (SI = IC50 for MCF-10A/IC50 for human breast tumor cells): range over cell lines and time points. As for the experimental part: as §1, §2

Test [10] deals with normal human keratinocytes (HaCaT). Set-up: method as in PMID 37579525. The conditions noted are these: cited from earlier work.
Test [11] has as its system mitogen-activated lymphocytes collected from the peripheral blood of a healthy donor. Details: method as in PMID 37579525. The conditions noted are these: cited from earlier work.
Where [12] appears, read: Homo sapiens, MCF-10A, 24 h, MCF-10A, 24 h, read-out: IC50, µM (M ± SD).
Where [13] appears, read: Homo sapiens, MCF-10A, 48 h, MCF-10A, 48 h, read-out: IC50, µM (M ± SD).
The mark [14] stands for this setting: Homo sapiens, MCF-10A, time point not specified (24 and 48 h), read-out: IC50 towards MCF-10A cells.
The mark [15] stands for this setting: time point not specified (24 and 48 h), read-out: IC50 towards MCF-10A cells.

By IC50 is commonly meant the concentration that gives 50% inhibition. Broadly, the inhibition is how much of the control response was suppressed. As for `O=C1CC(N2C(=O)C(=CC(Cl)=Cc3ccc([N+](=O)[O-])cc3)SC2=S)C(=O)N1c1ccc(Cl)cc1` (stereo not drawn) [Les-6294, 1-(4-chlorophenyl)-3-[5-[2-chloro-3-(4-nitrophenyl)prop-2-enylidene]-4-oxo-2-thioxothiazolidine-3-yl]pyrrolidine-2,5-dione], the IC50 amounted to 2.2 ± 0.19 µM in the test with 4T1 cells (4T1, 24 h); 2.22 ± 0.25 µM in the test on 4T1 cells (4T1, 48 h); 4.53 ± 0.18 µM with HCC1954 cells [1] (HCC1954, 24 h); 5.01 ± 0.23 µM with HCC1954 cells [1] (HCC1954, 48 h); 6.74 ± 0.64 µM in the test on MCF-7 cells [2] (MCF7, MCF-7, 24 h); 3.54 ± 0.14 µM in the test with MCF-7 cells [2] (MCF7, MCF-7, 48 h). For the same compound, the IC50 with MDA-MB-231 cells [3] (MDA-MB-231, 24 h) was 21.9 ± 9.92 µM; in the test with MDA-MB-231 cells [3] (MDA-MB-231, 48 h), 3.72 ± 0.22 µM; in the test with T-47D cells (24 h), 4.48 ± 0.51 µM; with T-47D cells (48 h) it was 2.66 ± 0.21 µM; in the test with MCF-10A cells [4] (setting [12]) it was > 100 µM; with MCF-10A cells [4] (setting [13]) it was > 100 µM. In addition, the IC50 with MCF-10A cells [4] (setting [14]) was > 100 µM; in the test with MCF-10A cells [4] (setting [15]) it was > 64.6 µM; in the test on HCC1954 cells [5] it was 3.05 ± 0.03 µM; with MCF-7 cells [6], 1.33 ± 0.1 µM; with MDA-MB-231 cells [7], 0.67 ± 0.08 µM; in the test with MCF-10A cells [8], > 50 µM. Also, the values for the IC50 in test [9], in [10] and in [11] were 1.37 to 21.9 µM, > 73.6 µM and 29 to 67 µM, respectively. Also, the formation of colonies result in the test with MCF-7 cells [6] was “totally inhibited”; in the test on MDA-MB-231 cells [7] (MDA-MB-231, compound at 5 µM), “did not observe the growth”. In addition, in the test on MCF-10A cells [8], the inhibition at 50 µM worked out at 37.1%. The “selectivity index (SI = IC50 for MCF-10A/IC50 for human breast tumor cells)” value in test [9] is listed as 4.57–37.59.

As for `O=C1CC(N2C(=O)C(=CC(Cl)=Cc3ccc([N+](=O)[O-])cc3)SC2=S)C(=O)N1c1ccc(Br)cc1` (stereo not drawn) [Les-6328, 1-(4-bromophenyl)-3-[5-[2-chloro-3-(4-nitrophenyl)prop-2-enylidene]-4-oxo-2-thioxothiazolidine-3-yl]pyrrolidine-2,5-dione], the IC50 with 4T1 cells (4T1, 24 h) was 2.25 ± 0.34 µM; in the test on 4T1 cells (4T1, 48 h), 1.94 ± 0.15 µM; with HCC1954 cells [1] (HCC1954, 24 h) it was 9.91 ± 0.17 µM; in the test on HCC1954 cells [1] (HCC1954, 48 h) it was 6.4 ± 0.25 µM; in the test on MCF-7 cells [2] (MCF7, MCF-7, 24 h) it was 3.26 ± 0.4 µM; with MCF-7 cells [2] (MCF7, MCF-7, 48 h), 2.18 ± 0.19 µM. For the same compound, the IC50 was 6.09 ± 0.33 µM in the test on MDA-MB-231 cells [3] (MDA-MB-231, 24 h); 2.01 ± 0.12 µM in the test with MDA-MB-231 cells [3] (MDA-MB-231, 48 h); 4.08 ± 0.56 µM in the test with T-47D cells (24 h); 1.97 ± 0.58 µM in the test with T-47D cells (48 h); > 100 µM in the test with MCF-10A cells [4] (setting [12]); > 100 µM in the test on MCF-10A cells [4] (setting [13]). The IC50 in the test with MCF-10A cells [4] (setting [14]) is > 100 µM; in the test with MCF-10A cells [4] (setting [15]), > 64.6 µM; in the test with HCC1954 cells [5], 1.54 ± 0.02 µM; in the test on MCF-7 cells [6], 1.57 ± 0.12 µM; in the test with MDA-MB-231 cells [7], 1.19 ± 0.03 µM; in the test on MCF-10A cells [8] it was > 50 µM. The IC50 in test [9] is 1.37 to 21.9 µM. The formation of colonies result with MCF-7 cells [6] is recorded as “totally inhibited”; in the test on MDA-MB-231 cells [7] (MDA-MB-231, compound at 2.5 µM), “did not observe the growth”. Moreover, in the test with MCF-10A cells [8], the inhibition at 50 µM is 25.9%. In addition, the “selectivity index (SI = IC50 for MCF-10A/IC50 for human breast tumor cells)” value in test [9] is 10.09–50.76.
